Measurements taken from patent publication US8846704B2, “Thiopyrimidine-based compounds and uses thereof” (YM Biosciences Austraila Pty Ltd, priority 2007, dated 2014).

Target: T1, BaF3 TELJAK3 cells (Homo sapiens, UniProt P52333)
T1 construct: fused on or other part: TEL (ETV6) N-terminal part, coding nucleotides 1-487, serves as the oligomerising partner; It is fused through a Sal I site to the JAK3 kinase domain and expressed from pTRE2 in BaF3 cells bearing pTET-off; P41212 (Transcription factor ETV6)
T1 sequence (P52333 1-1124): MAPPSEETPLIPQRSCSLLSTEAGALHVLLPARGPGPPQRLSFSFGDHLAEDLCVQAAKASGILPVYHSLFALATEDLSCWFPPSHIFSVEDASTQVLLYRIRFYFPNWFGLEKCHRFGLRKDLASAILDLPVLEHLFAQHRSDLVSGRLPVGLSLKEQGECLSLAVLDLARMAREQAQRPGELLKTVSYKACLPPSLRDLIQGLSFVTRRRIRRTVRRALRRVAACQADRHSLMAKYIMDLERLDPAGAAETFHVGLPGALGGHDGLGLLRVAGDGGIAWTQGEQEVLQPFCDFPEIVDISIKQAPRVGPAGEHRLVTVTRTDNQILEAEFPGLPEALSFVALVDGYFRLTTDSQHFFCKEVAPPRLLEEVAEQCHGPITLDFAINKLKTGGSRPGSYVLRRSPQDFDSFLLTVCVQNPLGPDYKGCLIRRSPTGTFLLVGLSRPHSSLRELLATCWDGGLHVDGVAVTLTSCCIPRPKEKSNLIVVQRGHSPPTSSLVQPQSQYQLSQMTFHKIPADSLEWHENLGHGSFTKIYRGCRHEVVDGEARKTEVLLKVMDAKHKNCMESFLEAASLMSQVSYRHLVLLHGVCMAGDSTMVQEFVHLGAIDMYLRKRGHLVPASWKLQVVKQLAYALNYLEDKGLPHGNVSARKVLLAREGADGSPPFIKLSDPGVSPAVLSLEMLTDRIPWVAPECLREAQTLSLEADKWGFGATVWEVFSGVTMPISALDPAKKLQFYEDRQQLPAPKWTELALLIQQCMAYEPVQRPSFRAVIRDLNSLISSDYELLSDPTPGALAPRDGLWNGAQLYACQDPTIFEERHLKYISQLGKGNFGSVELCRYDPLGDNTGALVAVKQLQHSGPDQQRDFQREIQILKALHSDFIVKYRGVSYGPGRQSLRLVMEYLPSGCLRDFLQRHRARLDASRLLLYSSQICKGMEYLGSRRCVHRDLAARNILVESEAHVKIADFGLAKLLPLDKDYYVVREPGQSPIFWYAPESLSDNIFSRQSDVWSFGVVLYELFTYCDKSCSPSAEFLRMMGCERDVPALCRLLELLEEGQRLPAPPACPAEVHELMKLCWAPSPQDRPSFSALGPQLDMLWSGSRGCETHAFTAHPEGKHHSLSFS
Assay: Cellular screening, BaF3 TEL:JAK3 cells, Alamar Blue
Assay type: cell-based
Conditions: 40 hr, read-out: BafT_J3 IC50_nM
Outline: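 BaF3 cells carrying pTET-off and a TEL–JAK3 kinase-domain fusion, selected for growth-factor independence, were grown in DMEM with 10% Tet-approved FBS without WEHI 3B medium. Cells were exposed to compounds for 40 h at 37 °C, 5% CO2. Viability was read with Alamar Blue (4–6 h) at 544 nm.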

C=CC(=O)Nc1cccc(Nc2nccc(Sc3cccc(OC)c3)n2)c1 [Compound 31, N-(3-(4-(3-methoxyphenylthio)pyrimidin-2-ylao)phenyl)acrylamide]
GI50: < 1 µM

C=CC(=O)N(C)c1ccc(Sc2ccnc(Nc3ccc(N4CCOCC4)cc3)n2)cc1 [Compound 91, N-methyl-N-(4-(2-(4-morpholinophenylao)pyrimidin-4-ylthio)phenyl)acrylamide]
GI50: < 1 µM

C=CC(=O)Nc1ccc(Sc2nc(Nc3cccc(OC(F)(F)F)c3)ncc2C)cc1 [Compound 289, N-(4-(5-methyl-2-(3-(trifluoromethoxy)phenylao)pyrimidin-4-ylthio)phenyl)acrylamide]
GI50: < 5 µM

Nc1ccc(Sc2nc(Nc3ccc(N4CCOCC4)cc3)ncc2Cl)cc1 [Compound 318, 4-(4-aophenylthio)-5-chloro-N-(4-morpholinophenyl)pyrimidin-2-ae]
GI50: > 20 µM

C=CC(=O)Nc1ccc(Sc2nc(Nc3ccc(OC)c(O)c3)ncc2C)cc1 [Compound 283, N-(4-(2-(3-hydroxy-4-methoxyphenylao)-5-methylpyrimidin-4-ylthio)phenyl)acrylamide]
GI50: < 1 µM

C=CC(=O)Nc1ccc(Sc2ccnc(Nc3cccc(N4CCCC4)c3)n2)cc1 [Compound 355, N-(4-(2-(3-(pyrrolidin-1-yl)phenylao)pyrimidin-4-ylthio)phenyl)acrylamide]
GI50: < 5 µM

C=CC(=O)Nc1ccc(Sc2ccnc(Nc3ccc(N4CCOCC4)cc3)n2)c(Cl)c1C [Compound 161, N-(3-chloro-2-methyl-4-(2-(4-morpholinophenylao)pyrimidin-4-ylthio)phenyl)acrylamide]
GI50: < 1 µM

C=CC(=O)Nc1ccc(Sc2ccnc(Nc3ccc(Cl)cc3)n2)cc1 [Compound 353, N-(4-(2-(4-chlorophenylao)pyrimidin-4-ylthio)phenyl)acrylamide]
GI50: < 5 µM

C=CC(=O)Nc1ccc(Sc2ccnc(Nc3cccc(S(=O)(=O)N4CCN(C)CC4)c3)n2)cc1 [Compound 365, N-(4-(2-(3-(4-methylpiperazin-1-ylsulfonyl)phenylao)pyrimidin-4-ylthio)phenyl)acrylamide]
GI50: < 5 µM

C=C(CN1CCOCC1)C(=O)Nc1cccc(Sc2ccnc(Nc3ccc(N4CCOCC4)cc3)n2)c1 [Compound 328, 2-(morpholinomethyl)-N-(3-(2-(4-morpholinophenylao)pyrimidin-4-ylthio)phenyl)acrylamide]
GI50: < 5 µM

C=CC(=O)Nc1ccc(Sc2nc(Nc3ccc(N4CCS(=O)(=O)CC4)cc3)ncc2C)cc1 [Compound 298, N-{4-[(2-{[4-(1,1-dioxo-1λ^6,4-thiomorpholin-4-yl)phenyl]ao}-5-methylpyrimidin-4-yl)sulfanyl]phenyl}prop-2-enamide]
GI50: < 1 µM

C=CC(=O)Nc1ccc(Sc2ccnc(Nc3ccc(S(=O)(=O)N4CCN(C)CC4)cc3)n2)cc1 [Compound 370, N-(4-(2-(4-(4-methylpiperazin-1-ylsulfonyl)phenylao)pyrimidin-4-ylthio)phenyl)acrylamide]
GI50: < 5 µM

C=CC(=O)Nc1ccc(Sc2nc(Nc3ccc(N4CCOCC4)cc3)ncc2Cl)cc1 [Compound 315, N-(4-(5-chloro-2-(4-morpholinophenylao)pyrimidin-4-ylthio)phenyl)acrylmide]
GI50: < 1 µM

C=CC(=O)Nc1ccc(Sc2ccnc(Nc3ccc(S(=O)(=O)NCCC(C)C)cc3)n2)cc1 [Compound 371, N-(4-(2-(4-(N-isopentylsulfamoyl)phenylao)pyrimidin-4-ylthio)phenyl)acrylamide]
GI50: < 5 µM

C=CC(=O)Nc1ccc(Sc2nc(Nc3ccc(N4CCOCC4)cc3)ncc2C)cc1 [Compound 124, N-(4-(5-methyl-2-(4-morpholinophenylao)pyrimidin-4-ylthio)phenyl)acrylamide]
GI50: < 1 µM

C=CC(=O)Nc1ccc(Sc2nc(Nc3ccccc3O)ncc2C)cc1 [Compound 287, N-(4-(2-(2-hydroxyphenylao)-5-methylpyrimidin-4-ylthio)phenyl)acrylamide]
GI50: < 20 µM

NC(=O)c1nccn1Cc1ccc(Sc2ccnc(Nc3ccc(N4CCOCC4)cc3)n2)cc1 [Compound 149, 1-(4-(2-(4-morpholinophenylao)pyrimidin-4-ylthio)benzyl)-1H-imidazole-2-carboxamide]
GI50: < 5 µM

C=CC(=O)Nc1ccc(Sc2ccnc(Nc3ccc(C#N)cc3)n2)cc1 [Compound 131, N-(4-(2-(4-cyanophenylao)pyrimidin-4-ylthio)phenyl)acrylamide]
GI50: < 5 µM

O=C(Nc1ccc(Sc2ccnc(Nc3ccc(N4CCOCC4)cc3)n2)cc1)C1CC1(F)Cl (stereo not drawn) [Compound 378, 2-chloro-2-fluoro-N-(4-(2-(4-morpholinophenylao)pyrimidin-4-ylthio)phenyl)cyclopropanecarboxamide]
GI50: < 1 µM

CSc1nc(Nc2ccc(N3CCOCC3)cc2)ncc1C [Compound 176, 5-methyl-4-(methylthio)-N-(4-morpholinophenyl)pyrimidin-2-ae]
GI50: < 5 µM

C=CC(=O)Nc1ccc(Sc2nc(Nc3ccc(CNS(C)(=O)=O)cc3)ncc2C)cc1 [Compound 294, N-(4-(5-methyl-2-(4-(methylsulfonamidomethyl)phenylao)pyrimidin-4-ylthio)phenyl)acrylamide]
GI50: < 1 µM

C=CC(=O)Nc1ccc(Sc2nc(Nc3ccc4c(c3)OCO4)ncc2C)cc1 [Compound 284, N-(4-(2-(benzo[d][1,3]dioxol-5-ylao)-5-methylpyrimidin-4-ylthio)phenyl)acrylamide]
GI50: < 1 µM

C=CC(=O)Nc1ccc(Sc2ccnc(Nc3cccc(S(=O)(=O)N4CCOCC4)c3)n2)cc1 [Compound 372, N-(4-(2-(3-(morpholinosulfonyl)phenylao)pyrimidin-4-ylthio)phenyl)acrylamide]
GI50: < 5 µM

C=CC(=O)Nc1ccc(Sc2ccnc(Nc3cccc(C(=O)OC)c3)n2)cc1 [Compound 356, methyl 3-(4-(4-acrylamidophenylthio)pyrimidin-2-ylao)benzoate]
GI50: < 5 µM

Cc1cnc(Nc2ccc(N3CCOCC3)cc2)nc1Sc1ccc(NC(=O)/C=C/Cl)cc1 [Compound 343, (E)-3-chloro-N-(4-(5-methyl-2-(4-morpholinophenylao)pyrimidin-4-ylthio)phenyl)acrylamide]
GI50: < 5 µM

N#Cc1nccc(Sc2ccc(Sc3ccnc(Nc4ccc(N5CCOCC5)cc4)n3)cc2)n1 [Compound 154, 4-(4-(2-(4-morpholinophenylao)pyrimidin-4-ylthio)phenylthio)pyrimidine-2-carbonitrile]
GI50: < 5 µM

C=CC(=O)Nc1ccc(Sc2ccnc(Nc3ccccc3O)n2)cc1 [Compound 279, N-(4-(2-(2-hydroxyphenylao)pyrimidin-4-ylthio)phenyl)acrylamide]
GI50: < 20 µM

C=CC(=O)Nc1ccc(Sc2ccnc(Nc3ccc(C(=O)OC)cc3)n2)cc1 [Compound 357, methyl 4-(4-(4-acrylamidophenylthio)pyrimidin-2-ylao)benzoate]
GI50: < 5 µM

COc1cc(Nc2nccc(Sc3ccc(NCC#N)cc3)n2)cc(OC)c1OC [Compound 52, 2-(4-(2-(3,4,5-trimethoxyphenylao)pyrimidin-4-ylthio)phenylao)acetonitrile]
GI50: < 5 µM

CCOC(=O)/C=C\C(=O)Nc1ccc(Sc2nc(Nc3ccc(N4CCOCC4)cc3)ncc2C)cc1 [Compound 388, (Z)-ethyl 4-(4-(5-methyl-2-(4-morpholinophenylao)pyrimidin-4-ylthio)phenylao)-4-oxobut-2-enoate]
GI50: < 5 µM

CCOC(=O)c1nccn1Cc1ccc(Sc2ccnc(Nc3ccc(N4CCOCC4)cc3)n2)cc1 [Compound 148, ethyl 1-(4-(2-(4-morpholinophenylao)pyrimidin-4-ylthio)benzyl)-1H-imidazole-2-carboxylate]
GI50: < 20 µM

COc1ccc(Nc2nccc(Sc3ccc(NC(=O)CC#N)cc3)n2)cc1OC [Compound 101, 2-cyano-N-(4-(2-(3,4-dimethoxyphenylao)pyrimidin-4-ylthio)phenyl)acetamide]
GI50: < 1 µM

Cc1cnc(Nc2ccc(N3CCOCC3)cc2)nc1Sc1ccc(NC(=O)/C(Br)=C\C(=O)O)cc1 [Compound 381, (E)-3-bromo-4-(4-(5-methyl-2-(4-morpholinophenylao)pyrimidin-4-ylthio)phenylao)-4-oxobut-2-enoic acid]
GI50: < 20 µM
